According to article PMC4922798 (Journal of the American Chemical Society, 2015):

Target: CazM (Chaetomium globosum, UniProt A0A0K0MCJ4)
Experiment: HPLC / LC-MS product analysis
Format: biochemical
Conditions: 2 mM 11-SNAC, malonyl-CoA, SAM; pH 7.4, room temperature, 8 h; reductive release

CazM, sequence (A0A0K0MCJ4 whole entry): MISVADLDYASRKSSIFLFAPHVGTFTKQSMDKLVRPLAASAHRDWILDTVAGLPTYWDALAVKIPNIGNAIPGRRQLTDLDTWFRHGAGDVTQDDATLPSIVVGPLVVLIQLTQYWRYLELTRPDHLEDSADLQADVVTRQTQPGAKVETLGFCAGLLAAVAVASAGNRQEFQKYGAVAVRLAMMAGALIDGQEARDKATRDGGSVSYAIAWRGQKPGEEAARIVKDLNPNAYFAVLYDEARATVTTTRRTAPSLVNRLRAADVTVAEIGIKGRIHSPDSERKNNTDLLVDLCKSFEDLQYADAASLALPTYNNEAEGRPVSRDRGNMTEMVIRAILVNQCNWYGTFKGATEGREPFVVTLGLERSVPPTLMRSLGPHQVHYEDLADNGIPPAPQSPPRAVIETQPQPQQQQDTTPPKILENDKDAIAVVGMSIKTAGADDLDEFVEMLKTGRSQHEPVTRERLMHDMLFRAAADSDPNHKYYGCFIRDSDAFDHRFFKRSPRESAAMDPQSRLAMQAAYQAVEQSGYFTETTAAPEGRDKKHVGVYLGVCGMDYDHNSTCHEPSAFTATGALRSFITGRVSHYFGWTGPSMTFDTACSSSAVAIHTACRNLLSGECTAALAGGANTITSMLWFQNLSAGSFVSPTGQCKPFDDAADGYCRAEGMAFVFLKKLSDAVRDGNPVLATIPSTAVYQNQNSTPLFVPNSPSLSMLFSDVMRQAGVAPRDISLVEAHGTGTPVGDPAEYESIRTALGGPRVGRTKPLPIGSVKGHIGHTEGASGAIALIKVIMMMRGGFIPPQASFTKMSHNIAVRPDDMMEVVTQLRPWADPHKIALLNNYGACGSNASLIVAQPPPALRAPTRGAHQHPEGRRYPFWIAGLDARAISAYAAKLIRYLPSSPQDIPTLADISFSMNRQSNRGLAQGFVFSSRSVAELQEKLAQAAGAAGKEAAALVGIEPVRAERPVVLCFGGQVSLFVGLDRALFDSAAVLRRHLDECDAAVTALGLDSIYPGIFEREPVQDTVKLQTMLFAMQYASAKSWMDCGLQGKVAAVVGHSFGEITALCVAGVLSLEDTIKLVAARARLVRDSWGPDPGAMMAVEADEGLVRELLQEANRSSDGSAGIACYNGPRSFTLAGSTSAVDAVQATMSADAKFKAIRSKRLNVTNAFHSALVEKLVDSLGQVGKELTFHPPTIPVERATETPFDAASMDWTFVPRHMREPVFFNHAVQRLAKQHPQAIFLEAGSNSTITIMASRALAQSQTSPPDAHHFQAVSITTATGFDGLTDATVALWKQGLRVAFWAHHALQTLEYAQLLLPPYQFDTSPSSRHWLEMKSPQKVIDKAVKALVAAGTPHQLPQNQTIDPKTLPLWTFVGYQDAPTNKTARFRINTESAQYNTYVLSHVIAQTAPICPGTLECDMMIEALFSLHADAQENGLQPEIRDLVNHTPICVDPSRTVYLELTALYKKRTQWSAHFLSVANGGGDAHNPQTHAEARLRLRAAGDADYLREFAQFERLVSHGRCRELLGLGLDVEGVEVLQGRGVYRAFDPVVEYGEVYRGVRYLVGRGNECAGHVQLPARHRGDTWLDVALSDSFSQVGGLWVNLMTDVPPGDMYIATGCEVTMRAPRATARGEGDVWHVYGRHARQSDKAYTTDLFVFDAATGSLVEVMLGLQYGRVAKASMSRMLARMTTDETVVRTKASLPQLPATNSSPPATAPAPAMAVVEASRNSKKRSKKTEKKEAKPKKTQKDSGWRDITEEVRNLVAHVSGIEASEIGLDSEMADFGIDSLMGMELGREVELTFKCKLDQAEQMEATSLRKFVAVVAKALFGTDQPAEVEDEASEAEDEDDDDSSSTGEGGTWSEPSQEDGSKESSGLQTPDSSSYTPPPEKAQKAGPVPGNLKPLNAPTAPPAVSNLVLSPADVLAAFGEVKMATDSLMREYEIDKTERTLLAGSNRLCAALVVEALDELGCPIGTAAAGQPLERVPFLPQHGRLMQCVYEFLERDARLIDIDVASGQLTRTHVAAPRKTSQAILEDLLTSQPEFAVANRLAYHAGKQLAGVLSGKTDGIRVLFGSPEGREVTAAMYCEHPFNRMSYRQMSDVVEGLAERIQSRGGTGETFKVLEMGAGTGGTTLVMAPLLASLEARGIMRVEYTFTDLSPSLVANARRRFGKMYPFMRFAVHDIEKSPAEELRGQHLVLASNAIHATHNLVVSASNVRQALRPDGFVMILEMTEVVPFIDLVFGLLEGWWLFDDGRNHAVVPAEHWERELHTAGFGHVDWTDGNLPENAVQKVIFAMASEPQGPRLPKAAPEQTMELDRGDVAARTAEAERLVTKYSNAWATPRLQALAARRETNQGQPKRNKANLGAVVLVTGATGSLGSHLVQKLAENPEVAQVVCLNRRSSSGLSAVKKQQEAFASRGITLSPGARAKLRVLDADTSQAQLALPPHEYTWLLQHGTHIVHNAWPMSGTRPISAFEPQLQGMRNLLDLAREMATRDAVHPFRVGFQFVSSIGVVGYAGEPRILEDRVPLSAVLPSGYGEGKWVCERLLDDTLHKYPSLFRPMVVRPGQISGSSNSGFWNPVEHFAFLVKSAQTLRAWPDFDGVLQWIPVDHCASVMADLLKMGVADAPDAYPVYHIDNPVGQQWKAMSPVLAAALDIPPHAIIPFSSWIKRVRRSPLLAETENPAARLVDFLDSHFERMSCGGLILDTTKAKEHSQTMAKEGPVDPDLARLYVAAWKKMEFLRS

`NC(=O)C1=CN([C@@H]2O[C@H](COP(=O)(O)OP(=O)(O)OC[C@H]3O[C@@H](n4cnc5c(N)ncnc54)[C@H](OP(=O)(O)O)[C@@H]3O)[C@@H](O)[C@H]2O)C=CC1` [NADPH] was tested, and the “HPLC / LC-MS product analysis” value was “CazM requires NADPH for the reductive offloading of its polyketide product”.
